Measurements reported in article PMC9914411, “Potent Xanthine Oxidase Inhibitory Activity of Constituents of Agastache rugosa (Fisch. and C.A.Mey.) Kuntze” (Foods, 2023).
Read-outs that look alike come from different tables or passages of the source.

Legend:
[1] = molecular target: T1, bovine milk XO (Bos taurus, UniProt P80457); experiment: XO inhibitory activity assay (uric acid formation from xanthine, absorbance at 295 nm); assay type: biochemical; conditions: for inhibition at 5 µM: read-out: XO inhibitory activity (%); for inhibition at 25 µM: read-out: Xanthine Oxidase Inhibition %
T1 construct: The bovine milk XO activity was assayed; from tissue; host or cells: bovine milk
Method: The bovine milk XO activity was assayed following the previously published procedures. […] First, 125 µL of 100 mM sodium pyrophosphate buffer (HCl, pH 7.5), 30 µL of 0.1 units XO enzyme, 5 µL of test samples, and 40 µL of the substrate (0.5 mM xanthine) were mixed. […] The inhibition mechanism and constants (Km, Vmax, and Ki) of a binding site for the inhibitor to a free enzyme (KI) or an enzyme–substrate complex (KIS) were determined using the Lineweaver–Burk and Dixon plots.
The ARE was prepared using five different polar solvents (EtOH, 70% EtOH, 50% EtOH, 30% EtOH, and H2O) and tested for their XO inhibitory activity.

[2] = molecular target: T1, bovine milk XO; experiment: XO kinetic assay (Lineweaver–Burk and Dixon plots, reversibility, preincubation); assay type: biochemical; conditions: for Xanthine Oxidase Kinetic Mode: Lineweaver–Burk and Dixon plots
Method: The bovine milk XO activity was assayed following the previously published procedures. […] First, 125 µL of 100 mM sodium pyrophosphate buffer (HCl, pH 7.5), 30 µL of 0.1 units XO enzyme, 5 µL of test samples, and 40 µL of the substrate (0.5 mM xanthine) were mixed. The reaction mixture (200 µL) in a 300 µL well plate was incubated at 37 °C and the UV absorbance at 295 nm was screened every 1 min for 15 min. The inhibition mechanism and constants (Km, Vmax, and Ki) of a binding site for the inhibitor to a free enzyme (KI) or an enzyme–substrate complex (KIS) were determined using the Lineweaver–Burk and Dixon plots. 1/V = Km/Vmax (1 + [I]/KI) 1/S + 1/Vmax(1) Slope = Km/KI Vmax [I] + Km/Vmax (2) Intercept = 1/KIS Vmax [I] + 1/Vmax (3) […]
The kinetic behaviors of the oxidation of xanthine catalyzed by XO at different concentrations of inhibitor were analyzed using both Lineweaver–Burk (Figure 3A) and Dixon plots (Figure 3B). […] The two possible inhibition mechanisms were investigated to reveal which one gives this kinetic profile. The mechanisms of mixed inhibition can be investigated through the changes of the substrate with inhibitor followed by measurements of the residual enzyme–substrate complex. Parameters of free enzyme (KI) and the enzyme–substrate complex (KIS) can be fitted to Equations (2) and (3). […] Further analysis of the progress of the inhibition was undertaken by preincubating the enzyme with 7, prior to the addition of the substrate.

[3] = isolated compounds and positive controls, read-out: Xanthine Oxidase IC50
[4] = sample concentration 25 µM for the compound

T1 sequence (P80457 whole entry): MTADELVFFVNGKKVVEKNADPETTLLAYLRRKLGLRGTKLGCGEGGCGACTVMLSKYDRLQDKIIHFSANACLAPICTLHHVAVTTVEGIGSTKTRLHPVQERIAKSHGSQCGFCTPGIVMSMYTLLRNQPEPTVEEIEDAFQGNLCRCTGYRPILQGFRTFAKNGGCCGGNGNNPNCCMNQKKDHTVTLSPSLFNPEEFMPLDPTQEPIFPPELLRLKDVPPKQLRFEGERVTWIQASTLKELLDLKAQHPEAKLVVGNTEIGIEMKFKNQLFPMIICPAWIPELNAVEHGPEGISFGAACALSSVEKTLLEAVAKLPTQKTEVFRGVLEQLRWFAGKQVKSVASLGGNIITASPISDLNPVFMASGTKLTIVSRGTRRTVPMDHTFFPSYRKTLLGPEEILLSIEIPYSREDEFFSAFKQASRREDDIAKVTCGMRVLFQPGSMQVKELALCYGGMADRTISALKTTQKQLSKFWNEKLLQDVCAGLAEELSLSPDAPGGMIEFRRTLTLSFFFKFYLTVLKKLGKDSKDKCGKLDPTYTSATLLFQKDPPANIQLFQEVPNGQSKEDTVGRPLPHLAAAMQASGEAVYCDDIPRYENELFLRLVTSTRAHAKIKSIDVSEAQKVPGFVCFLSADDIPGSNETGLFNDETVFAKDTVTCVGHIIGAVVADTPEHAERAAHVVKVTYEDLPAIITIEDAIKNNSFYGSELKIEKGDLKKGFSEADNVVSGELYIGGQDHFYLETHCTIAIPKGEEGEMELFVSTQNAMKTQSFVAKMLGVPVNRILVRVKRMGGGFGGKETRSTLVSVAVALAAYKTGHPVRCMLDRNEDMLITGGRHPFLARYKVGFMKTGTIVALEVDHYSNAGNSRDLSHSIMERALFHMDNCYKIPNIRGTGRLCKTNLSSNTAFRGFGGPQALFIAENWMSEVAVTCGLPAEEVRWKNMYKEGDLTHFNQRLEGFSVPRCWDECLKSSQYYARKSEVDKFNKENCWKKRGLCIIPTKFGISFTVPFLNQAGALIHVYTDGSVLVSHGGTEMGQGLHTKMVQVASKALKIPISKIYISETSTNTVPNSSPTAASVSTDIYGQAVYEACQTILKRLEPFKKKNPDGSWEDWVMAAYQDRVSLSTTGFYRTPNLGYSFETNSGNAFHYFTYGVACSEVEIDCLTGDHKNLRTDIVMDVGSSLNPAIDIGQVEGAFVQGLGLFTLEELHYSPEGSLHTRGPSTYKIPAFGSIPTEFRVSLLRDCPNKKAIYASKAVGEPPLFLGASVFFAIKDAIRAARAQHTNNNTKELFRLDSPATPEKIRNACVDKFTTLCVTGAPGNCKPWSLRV

SMILES | Xanthine Oxidase Kinetic Mode [2] | IC50 [1, 3] [µM] | inhibition at 25 µM [1, 4] [%] | further results
Oc1ncnc2[nH]ncc12 [Allopurinol, reference compound] | Competitive | – | – | inhibition at 5 µM [1]: 51.9%; inhibition at 25 µM [1]: 82.5 ± 1.2%
O=C(/C=C/c1ccc(O)c(O)c1)O[C@H](Cc1ccc(O)c(O)c1)C(=O)O [Compound 1, Rosmarinic acid] | – | > 100 | 27.2 ± 1.5 | –
O=C(/C=C/c1ccc(O)c2c1[C@H](C(=O)O[C@H](Cc1ccc(O)c(O)c1)C(=O)O)[C@@H](c1ccc(O)c(O)c1)O2)O[C@H](Cc1ccc(O)c(O)c1)C(=O)O [Compound 2, Salvianolic acid B] | – | – | 46.1 ± 1.2 | IC50 [1]: 30.7 ± 0.8 µM
COc1ccc(-c2cc(=O)c3c(O)cc(OC4OC(COC(=O)CC(=O)O)C(O)C(O)C4O)cc3o2)cc1 [Compound 4, Acacetin 7-O-(6-O-malonyl)-β-D-glucoside] | – | 80.6 ± 0.7 | 36.2 ± 1.4 | –
COc1ccc(-c2cc(=O)c3c(O)cc(OC4OC(CO)C(O)C(O)C4OC(C)=O)cc3o2)cc1 [Compound 5, Acacetin 7-O-(2″-O-acetyl)-β-D-glucoside] | – | 74.5 ± 0.9 | 40.7 ± 1.5 | –
COc1ccc(-c2cc(=O)c3c(O)cc(OC4OC(COC(=O)CC(=O)O)C(O)C(O)C4OC(C)=O)cc3o2)cc1 [Compound 6, Acacetin 7-O-(2″-O-acetyl-6″-O-malonyl)-β-D-glucoside] | – | > 100 | 26.2 ± 0.9 | –

Continued, in another order:

Xanthine Oxidase Kinetic Mode [2] | IC50 [1, 3] [µM] | inhibition at 25 µM [1, 4] [%] | SMILES | further results
Competitive | 0.87 | 88.6 ± 1.2 | O=c1cc(-c2ccc(O)cc2)oc2cc(O)cc(O)c12 [Apigenin, reference compound] | inhibition at 5 µM ([1]; concentration of 5 μM): 67.2%
– | 26.4 ± 0.6 | 49.3 ± 1.5 | COc1ccc(-c2cc(=O)c3c(O)cc(O[C@@H]4O[C@H](CO)[C@@H](O)[C@H](O)[C@H]4O)cc3o2)cc1 [Compound 3, Tilianin] | –
mixed type I | 0.58 ± 0.5 | 94.5 ± 1.4 | COc1ccc(-c2cc(=O)c3c(O)cc(O)cc3o2)cc1 [Compound 7, Acacetin] | inhibition at 5 µM ([1]; concentration of 5 μM): 75.5%; Ki ([2]; Dixon plots, read-out: Xanthine Oxidase Ki): 0.61 µM; Reversibility of XO inhibition ([2]; activity versus enzyme concentration at 0-1.56 μM inhibitor): reversible inhibition; Inhibition as a function of preincubation time ([2]; enzyme preincubated with inhibitor at 0.2 μM): time-dependent inhibitory behavior; KIS (inhibitor binding to enzyme–substrate complex) ([2]; secondary plot of intercept, Equation (3)): 1.14 µM; Ki ([2]; secondary plot of slope, Equation (2), read-out: KI (inhibitor binding to free enzyme)): 0.57 µM
